Test results: US9796711B2, “Substituted pyrazolo[3,4-b]pyridin-6-carboxylic acids and method of use” (AbbVie S.àr.l., priority 2015, dated 2017)

Legend:
[1] = target: T1, ΔF508-CFTR (Homo sapiens, UniProt P13569, DEL508-508); test: CFTR cell surface levels using HRP-tagged ΔF508-CFTR expressing CFBE cells, intrinsic corrector capacity; format: cell-based; conditions: HRP-tagged ΔF508-CFTR expressing CFBE cells, intrinsic corrector capacity (no co-corrector), 33° C., 20 hours; for EC50: read-out: EC50
T1 construct: host or cells: CFBE41o-, doxycycline-inducible
T1 sequence (P13569 with tags, fused parts or gaps DEL508-508): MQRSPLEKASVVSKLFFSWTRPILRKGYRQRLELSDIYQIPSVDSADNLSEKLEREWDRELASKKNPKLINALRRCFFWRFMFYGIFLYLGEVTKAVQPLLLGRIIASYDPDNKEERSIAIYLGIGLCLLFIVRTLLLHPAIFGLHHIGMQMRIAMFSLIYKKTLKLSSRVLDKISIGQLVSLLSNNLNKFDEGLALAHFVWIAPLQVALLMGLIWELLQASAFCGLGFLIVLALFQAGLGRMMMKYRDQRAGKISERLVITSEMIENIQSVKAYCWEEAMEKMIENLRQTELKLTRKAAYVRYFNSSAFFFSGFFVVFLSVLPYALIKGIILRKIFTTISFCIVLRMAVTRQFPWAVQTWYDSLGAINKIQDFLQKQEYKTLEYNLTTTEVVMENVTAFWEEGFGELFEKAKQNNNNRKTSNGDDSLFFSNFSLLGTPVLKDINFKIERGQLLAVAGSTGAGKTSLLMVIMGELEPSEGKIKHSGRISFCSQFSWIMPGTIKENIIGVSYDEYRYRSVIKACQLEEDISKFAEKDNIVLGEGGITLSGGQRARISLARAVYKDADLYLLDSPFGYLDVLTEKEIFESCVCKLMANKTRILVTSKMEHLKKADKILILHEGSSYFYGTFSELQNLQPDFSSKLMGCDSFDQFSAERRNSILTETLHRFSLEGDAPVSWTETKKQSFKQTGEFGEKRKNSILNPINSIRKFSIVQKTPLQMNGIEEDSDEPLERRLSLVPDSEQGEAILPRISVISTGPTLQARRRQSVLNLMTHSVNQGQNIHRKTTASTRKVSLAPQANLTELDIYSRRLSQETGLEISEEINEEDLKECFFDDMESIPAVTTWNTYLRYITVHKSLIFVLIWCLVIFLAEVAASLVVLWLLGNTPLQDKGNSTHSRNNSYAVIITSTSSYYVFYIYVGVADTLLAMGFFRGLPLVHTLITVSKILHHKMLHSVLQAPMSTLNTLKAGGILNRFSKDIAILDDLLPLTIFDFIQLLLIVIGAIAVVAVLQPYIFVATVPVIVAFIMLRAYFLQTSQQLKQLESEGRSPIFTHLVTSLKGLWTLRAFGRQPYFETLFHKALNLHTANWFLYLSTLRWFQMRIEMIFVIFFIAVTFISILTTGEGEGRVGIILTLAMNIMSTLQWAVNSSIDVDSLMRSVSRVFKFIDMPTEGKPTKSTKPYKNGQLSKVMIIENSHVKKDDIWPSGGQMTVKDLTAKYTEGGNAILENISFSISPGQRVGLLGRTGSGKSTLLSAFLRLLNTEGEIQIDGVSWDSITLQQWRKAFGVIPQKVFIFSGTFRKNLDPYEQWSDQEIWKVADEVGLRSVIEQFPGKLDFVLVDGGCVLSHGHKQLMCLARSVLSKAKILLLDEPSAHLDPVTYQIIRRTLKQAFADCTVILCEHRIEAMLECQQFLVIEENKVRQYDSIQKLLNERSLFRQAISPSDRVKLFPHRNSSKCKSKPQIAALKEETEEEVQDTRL
Summary of the method: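 Here the cells express ΔF508-CFTR with horseradish peroxidase inserted in extracellular loop 4, so only rescued channel at the surface gives luminescent signal. Compounds act on their own, 20 h at the reduced temperature of 33 °C; values are percent activity relative to DMSO and a 3 μM corrector.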

[2] = target: T1, ΔF508-CFTR; test: CFTR cell surface levels using HRP-tagged ΔF508-CFTR expressing CFBE cells, in the presence of a co-corrector; format: cell-based; conditions: HRP-tagged ΔF508-CFTR expressing CFBE cells, in the presence of 3 μM co-corrector; for EC50: read-out: EC50
Summary of the method: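 Cells were seeded with 0.5 μg/mL doxycycline and held 68 h at 37 °C. Test compounds plus 3 μM co-corrector (final 0.1% DMSO) were then added for 20 h at 33 °C. Washed cells received HRP substrate, and luminescence was normalized between DMSO and 3 μM co-corrector controls.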

## COC(C)C1CCN(c2cc(C(=O)O)nc3c2c(C2CCC2)nn3-c2ccccc2)CC1 (stereo not shown) [compound 498, 3-cyclobutyl-4-[4-(1-methoxyethyl)piperidin-1-yl]-1-phenyl-1H-pyrazolo[3,4-b]pyridine-6-carboxylic acid]
[1]
  % Activation: 244.33%
  EC50: 326 nM
[2]
  % Activation: 435.9%
  EC50: 87.8 nM

## COC(C)(C1CCN(c2cc(C(=O)O)nc3c2c(C2CCC2)nn3-c2ccccc2)CC1)C(F)(F)F (stereo not shown) [compound 499, 3-cyclobutyl-1-phenyl-4-[4-(1,1,1-trifluoro-2-methoxypropan-2-yl)piperidin-1-yl]-1H-pyrazolo[3,4-b]pyridine-6-carboxylic acid]
[1]
  % Activation: 242.93%
  EC50: 393 nM
[2]
  % Activation: 435.6%
  EC50: 200 nM

## CCN(CC)C(=O)C1CCCN(c2cc(C(=O)O)nc3c2c(C2CCC2)nn3-c2ccccc2)C1 (stereo not shown) [compound 500, 3-cyclobutyl-4-[3-(diethylcarbamoyl)piperidin-1-yl]-1-phenyl-1H-pyrazolo[3,4-b]pyridine-6-carboxylic acid]
[1]
  % Activation: 132.8%
  EC50: 467 nM
[2]
  % Activation: 289%
  EC50: 296 nM

## O=C(O)c1cc(N2CCC(O)CC2)c2c(C3CCC3)nn(-c3ccccc3)c2n1 [compound 501, 3-cyclobutyl-4-(4-hydroxypiperidin-1-yl)-1-phenyl-1H-pyrazolo[3,4-b]pyridine-6-carboxylic acid]
[1]
  % Activation: 152.7%
  EC50: 629 nM
[2]
  % Activation: 367.65%
  EC50: 353 nM

## Cc1ncn(C)c(=O)c1CCN1CCN(c2cc(C(=O)O)nc3c2c(C2CCC2)nn3-c2ccccc2)CC1 [compound 502, 3-cyclobutyl-4-{4-[2-(1,4-dimethyl-6-oxo-1,6-dihydropyrimidin-5-yl)ethyl]piperazin-1-yl}-1-phenyl-1H-pyrazolo[3,4-b]pyridine-6-carboxylic acid]
[1]
  % Activation: 152%
  EC50: 3340 nM
[2]
  % Activation: 327%
  EC50: 1350 nM

## CN1C(=O)CO[C@@H]2CN(c3cc(C(=O)O)nc4c3c(C3CCC3)nn4-c3ccccc3)C[C@@H]21 [compound 503, 3-cyclobutyl-4-[(4aS,7aR)-4-methyl-3-oxohexahydropyrrolo[3,4-b][1,4]oxazin-6(2H)-yl]-1-phenyl-1H-pyrazolo[3,4-b]pyridine-6-carboxylic acid]
[1]
  % Activation: 65.78%
  EC50: 3340 nM
[2]
  % Activation: 220.8%
  EC50: 3190 nM

## O=C1CN(c2cc(C(=O)O)nc3c2c(C2CCC2)nn3-c2ccccc2)CCN1 [compound 504, 3-cyclobutyl-4-(3-oxopiperazin-1-yl)-1-phenyl-1H-pyrazolo[3,4-b]pyridine-6-carboxylic acid]
[1]
  % Activation: 19.62%
  EC50: > 10000 nM
[2]
  % Activation: 138.9%
  EC50: > 10000 nM

## O=C1CCC[C@H]2CN(c3cc(C(=O)O)nc4c3c(C3CCC3)nn4-c3ccccc3)C[C@H]2N1 [compound 505, 3-cyclobutyl-4-[(5aS,8aS)-2-oxooctahydropyrrolo[3,4-b]azepin-7(1H)-yl]-1-phenyl-1H-pyrazolo[3,4-b]pyridine-6-carboxylic acid]
[1]
  % Activation: -6.616%
  EC50: > 10000 nM
[2]
  % Activation: 118.3%
  EC50: > 10000 nM

## O=C(O)c1cc(N2CC(F)(F)C[C@@H]2CO)c2c(C3CCC3)nn(-c3ccccc3)c2n1 [compound 506, 3-cyclobutyl-4-[(2R)-4,4-difluoro-2-(hydroxymethyl)pyrrolidin-1-yl]-1-phenyl-1H-pyrazolo[3,4-b]pyridine-6-carboxylic acid]
[1]
  % Activation: 40.12%
  EC50: 3340 nM
[2]
  % Activation: 137.7%
  EC50: > 10000 nM

## O=C(O)c1cc(N2C[C@@H](F)C[C@H]2CO)c2c(C3CCC3)nn(-c3ccccc3)c2n1 [compound 507, 3-cyclobutyl-4-[(2S,4S)-4-fluoro-2-(hydroxymethyl)pyrrolidin-1-yl]-1-phenyl-1H-pyrazolo[3,4-b]pyridine-6-carboxylic acid]
[1]
  % Activation: 132.8%
  EC50: 2170 nM
[2]
  % Activation: 218.3%
  EC50: 2520 nM
